From US9902733B2, “Furopyridines as inhibitors of protein kinases” (MASARYKOVA UNIVERZITA, priority 2014, dated 2018)

Key:
Format in all cases: biochemical
[1] = biological target: T1, CLK2 (h) (Homo sapiens, UniProt P49760); experiment: CLK2 KinaseProfiler radiometric protein kinase assay; settings: radiometric, 15 μM ATP, 40 minutes at room temperature; read-out: CLK2 IC50
T1 construct: purchased Merck Millipore (KinaseProfiler service)
Protocol: (§1) In vitro essays were performed by the company Merck Millipore in their KinaseProfiler radiometric protein kinase assay as paid commercial service. The compounds IC50 values for inhibition of individual protein kinases were determined. Dose-response curves were plotted from inhibition data generated, each in duplicate, from 10 point serial dilutions of inhibitory compounds. Concentration of compound was plotted against % kinase activity. To generate IC50 values, the dose-response curves were fitted to a standard sigmoidal curve and IC50 values were derived by standard nonlinear regression analysis.
(§2) All tested compounds were prepared in 100% DMSO to final assay concentrations either 0.5 mM (for the concentration row A, see below) or 0.05 mM (for the concentration row B). This working stock of the compound was added to the assay well as the first component in the reaction, followed by the remaining components as detailed below. The stock solution was added to the individual assay wells in such amounts that the concentrations of the compound were either in the row A (0.001 μM, 0.003 μM, 0.01 μM, 0.03 μM, 0.1 μM, 0.3 μM, 1.0 μM, 3.0 μM, and 10.0 μM) or in the row B (0.0001 μM, 0.0003 μM, 0.001 μM, 0.003 μM, 0.01 μM, 0.03 μM, 0.1 μM, 0.3 μM, and 1.0 μM). There was no pre-incubation step between the compound and the kinase prior to initiation of the reaction.
(§3) The positive control wells contained all components of the reaction, except the compound of interest; however, DMSO (at a final concentration of 2%) was included in these wells to control for solvent effects. The blank wells contained all components of the reaction, with staurosporine as a reference inhibitor replacing the compound of interest. This abolished kinase activity and established the base-line (0% kinase activity remaining).
CLK2 (h) was diluted in the buffer (20 mM MOPS (3-(N-morpholino)propanesulfonic acid), 1 mM EDTA (ethylendiaminotetraacetic acid), 0.01% Brij-35 (detergent), 5% Glycerol, 0.1% β-mercaptoethanol, 1 mg/mL BSAs) to the concentration of 1.01 mg/mL prior to addition to the reaction mix.
(§4) The above stock solution of CLK2(h) was added to a mixture containing 8 mM MOPS pH 7.0, 0.2 mM EDTA, and 20 μM […](p) EDEEE in such amount that the resulting concentration of CLK2(h) was 2.1 nM. This mixture was added to the stock solution of the tested compound. The reaction was initiated by the addition of the MgATP mix in such amount that the resulting concentration of Mg acetate in the reaction mixture was 10 mM and [γ-^33P-ATP] (specific activity approx. 500 cpm/pmol) was 15 μM. After incubation for 40 minutes at room temperature, the reaction was stopped by the addition of 3% phosphoric acid solution. 10 μL of the reaction was then spotted onto a P30 filtermat and washed three times for 5 minutes in 75 mM phosphoric acid and once in methanol prior to drying and scintillation counting.

[2] = biological target: T2, CLK4 (h) (Homo sapiens, UniProt Q9HAZ1); experiment: CLK4 KinaseProfiler radiometric protein kinase assay; settings: 15 μM ATP, 40 minutes at room temperature
T2 construct: purchased Merck Millipore (KinaseProfiler service)
Protocol: as §1, §2, §3
CLK4 (h) was diluted in the buffer (20 mM MOPS, 1 mM EDTA, 0.01% Brij-35, 5% Glycerol, 0.1% β-mercaptoethanol, 1 mg/mL BSAs) to the concentration of 1.01 mg/mL prior to addition to the reaction mix.
as §4, with “CLK4(h)” for “CLK2(h)”, “200” for “20”, “140.8” for “2.1”

[3] = biological target: T3, HIPK1(h) (Homo sapiens, UniProt Q86Z02); experiment: HIPK1 KinaseProfiler radiometric protein kinase assay; settings: 45 μM ATP, 40 minutes at room temperature
T3 construct: purchased Merck Millipore (KinaseProfiler service)
Protocol: as §1, §2, §3
HIPK1(h) was diluted in the buffer (20 mM MOPS, 1 mM EDTA, 0.01% Brij-35, 5% Glycerol, 0.1% β-mercaptoethanol, 1 mg/mL BSAs) to the concentration of 1.01 mg/mL prior to addition to the reaction mix.
(§5) The above stock solution of HIPK1(h) was added to a mixture containing 8 mM MOPS pH 7.0, 0.2 mM EDTA, and 0.33 mg/mL myelin basic protein in such amount that the resulting concentration of HIPK1(h) was 4.7 nM. This mixture was added to the stock solution of the tested compound. The reaction was initiated by the addition of the MgATP mix in such amount that the resulting concentration of Mg acetate in the reaction mixture was 10 mM and [γ-^33P-ATP] (specific activity approx. 500 cpm/pmol) was 45 μM. After incubation for 40 minutes at room temperature, the reaction was stopped by the addition of 3% phosphoric acid solution. 10 μL of the reaction was then spotted onto a P30 filtermat and washed three times for 5 minutes in 75 mM phosphoric acid and once in methanol prior to drying and scintillation counting.

[4] = biological target: T4, HIPK2(h) (Homo sapiens, UniProt Q9H2X6); experiment: HIPK2 KinaseProfiler radiometric protein kinase assay; settings: 10 μM ATP, 40 minutes at room temperature
T4 construct: purchased Merck Millipore (KinaseProfiler service)
Protocol: as §1, §2, §3
HIPK2(h) was diluted in the buffer (20 mM MOPS, 1 mM EDTA, 0.01% Brij-35, 5% Glycerol, 0.1% β-mercaptoethanol, 1 mg/mL BSAs) to the concentration of 1.01 mg/mL prior to addition to the reaction mix.
as §5, with “HIPK2(h)” for “HIPK1(h)”, “1.4” for “4.7”, “10” for “45”

[5] = biological target: T5, HIPK3(h) (Homo sapiens, UniProt Q9H422); experiment: HIPK3 KinaseProfiler radiometric protein kinase assay; settings: 15 μM ATP, 40 minutes at room temperature
T5 construct: purchased Merck Millipore (KinaseProfiler service)
Protocol: as §1, §2, §3
HIPK3(h) was diluted in the buffer (20 mM MOPS, 1 mM EDTA, 0.01% Brij-35, 5% Glycerol, 0.1% β-mercaptoethanol, 1 mg/mL BSAs) to the concentration of 1.01 mg/mL prior to addition to the reaction mix.
as §5, with “HIPK3(h)” for “HIPK1(h)”, “1.0” for “0.33”, “6.4” for “4.7”, “15” for “45”, “10 μL of the reaction was then spotted onto a P30 filtermat and washed three times for 5 minutes in 75 mM phosphoric acid and once in methanol prior to drying and scintillation counting.” left out

[6] = biological target: T6, FLT3(h) (Homo sapiens, UniProt P36888); experiment: FLT3 KinaseProfiler radiometric protein kinase assay; settings: 200 μM ATP, 40 minutes at room temperature
T6 construct: purchased Merck Millipore (KinaseProfiler service)
T6 sequence (P36888 27-993): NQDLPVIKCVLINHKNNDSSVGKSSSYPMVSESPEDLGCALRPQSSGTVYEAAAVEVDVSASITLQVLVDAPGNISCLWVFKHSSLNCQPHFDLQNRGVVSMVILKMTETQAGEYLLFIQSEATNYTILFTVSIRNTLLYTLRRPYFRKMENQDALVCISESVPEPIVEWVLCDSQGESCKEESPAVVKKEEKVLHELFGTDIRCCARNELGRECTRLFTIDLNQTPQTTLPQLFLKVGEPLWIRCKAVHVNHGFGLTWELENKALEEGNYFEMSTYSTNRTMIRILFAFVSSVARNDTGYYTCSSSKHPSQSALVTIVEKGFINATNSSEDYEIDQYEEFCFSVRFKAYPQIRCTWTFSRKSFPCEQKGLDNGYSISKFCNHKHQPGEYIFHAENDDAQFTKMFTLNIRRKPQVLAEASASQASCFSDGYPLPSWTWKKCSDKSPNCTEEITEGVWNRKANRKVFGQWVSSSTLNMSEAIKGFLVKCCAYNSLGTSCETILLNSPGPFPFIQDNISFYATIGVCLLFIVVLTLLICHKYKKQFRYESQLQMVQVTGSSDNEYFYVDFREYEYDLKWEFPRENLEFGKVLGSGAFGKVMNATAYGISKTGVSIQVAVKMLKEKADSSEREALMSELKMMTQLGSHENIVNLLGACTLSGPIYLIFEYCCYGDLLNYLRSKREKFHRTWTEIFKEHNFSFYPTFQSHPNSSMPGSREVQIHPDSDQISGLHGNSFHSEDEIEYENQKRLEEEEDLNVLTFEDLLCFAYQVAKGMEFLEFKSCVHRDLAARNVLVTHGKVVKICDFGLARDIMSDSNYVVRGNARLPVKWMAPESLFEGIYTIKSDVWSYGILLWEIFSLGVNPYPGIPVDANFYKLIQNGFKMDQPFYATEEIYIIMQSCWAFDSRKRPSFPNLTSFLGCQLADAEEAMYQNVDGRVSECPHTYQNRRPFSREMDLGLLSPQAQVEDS
Protocol: as §1, §2, §3
FLT3(h) was diluted in the buffer (20 mM MOPS, 1 mM EDTA, 0.01% Brij-35, 5% Glycerol, 0.1% β-mercaptoethanol, 1 mg/mL BSAs) to the concentration of 1.01 mg/mL prior to addition to the reaction mix.
The above stock solution of Flt3(h) was added to a mixture containing 8 mM MOPS pH 7.0, 0.2 mM EDTA, and 50 μM EAIYAAPFAKKK, in such amount that the resulting concentration of FLT3(h) was 28.3 nM. This mixture was added to the stock solution of the tested compound. The reaction was initiated by the addition of the MgATP mix in such amount that the resulting concentration of Mg acetate in the reaction mixture was 10 mM and [γ-^33P-ATP] (specific activity approx. 500 cpm/pmol) was 200 μM. After incubation for 40 minutes at room temperature, the reaction was stopped by the addition of 3% phosphoric acid solution. 10 μL of the reaction was then spotted onto a P30 filtermat and washed three times for 5 minutes in 75 mM phosphoric acid and once in methanol prior to drying and scintillation counting.

[7] = biological target: T7, TRKA(h) (Homo sapiens, UniProt P04629); experiment: TRKA KinaseProfiler radiometric protein kinase assay; settings: 120 μM ATP, 40 minutes at room temperature
T7 construct: purchased Merck Millipore (KinaseProfiler service)
Protocol: as §1, §2, §3
TRKA(h) was diluted in the buffer (20 mM MOPS, 1 mM EDTA, 0.01% Brij-35, 5% Glycerol, 0.1% β-mercaptoethanol, 1 mg/mL BSAs) to the concentration of 1.01 mg/mL prior to addition to the reaction mix.
The above stock solution of TRKA(h) was added to a mixture containing 8 mM MOPS pH 7.0, 0.2 mM EDTA, and 250 μM KKKSPGEYVNIEFG, in such amount that the resulting concentration of TRKA(h) was 28.2 nM. This mixture was added to the stock solution of the tested compound. The reaction was initiated by the addition of the MgATP mix in such amount that the resulting concentration of Mg acetate in the reaction mixture was 10 mM and [γ-^33P-ATP] (specific activity approx. 500 cpm/pmol) was 120 μM. After incubation for 40 minutes at room temperature, the reaction was stopped by the addition of 3% phosphoric acid solution. […]

T7 sequence (P04629 33-796): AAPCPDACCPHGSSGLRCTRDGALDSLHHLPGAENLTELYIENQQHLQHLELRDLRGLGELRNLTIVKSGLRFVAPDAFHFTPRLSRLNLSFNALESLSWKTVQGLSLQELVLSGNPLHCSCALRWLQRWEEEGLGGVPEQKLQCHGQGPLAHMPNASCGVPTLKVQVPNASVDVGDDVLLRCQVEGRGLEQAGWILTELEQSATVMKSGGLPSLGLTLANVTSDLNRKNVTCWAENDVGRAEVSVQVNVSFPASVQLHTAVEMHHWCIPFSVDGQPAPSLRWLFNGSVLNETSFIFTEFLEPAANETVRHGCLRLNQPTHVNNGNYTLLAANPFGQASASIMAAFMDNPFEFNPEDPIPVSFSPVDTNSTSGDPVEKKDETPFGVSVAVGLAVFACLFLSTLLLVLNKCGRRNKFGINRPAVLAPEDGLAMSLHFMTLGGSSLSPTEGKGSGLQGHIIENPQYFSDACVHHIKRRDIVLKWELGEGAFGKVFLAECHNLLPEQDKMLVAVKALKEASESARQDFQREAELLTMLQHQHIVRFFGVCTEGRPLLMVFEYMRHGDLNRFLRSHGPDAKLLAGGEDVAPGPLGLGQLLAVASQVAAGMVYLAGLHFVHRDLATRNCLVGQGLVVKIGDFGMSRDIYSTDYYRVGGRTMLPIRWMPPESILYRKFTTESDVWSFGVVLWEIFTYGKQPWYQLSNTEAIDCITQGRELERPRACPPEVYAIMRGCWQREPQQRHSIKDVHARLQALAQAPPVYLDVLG
T2 sequence (Q9HAZ1 whole entry): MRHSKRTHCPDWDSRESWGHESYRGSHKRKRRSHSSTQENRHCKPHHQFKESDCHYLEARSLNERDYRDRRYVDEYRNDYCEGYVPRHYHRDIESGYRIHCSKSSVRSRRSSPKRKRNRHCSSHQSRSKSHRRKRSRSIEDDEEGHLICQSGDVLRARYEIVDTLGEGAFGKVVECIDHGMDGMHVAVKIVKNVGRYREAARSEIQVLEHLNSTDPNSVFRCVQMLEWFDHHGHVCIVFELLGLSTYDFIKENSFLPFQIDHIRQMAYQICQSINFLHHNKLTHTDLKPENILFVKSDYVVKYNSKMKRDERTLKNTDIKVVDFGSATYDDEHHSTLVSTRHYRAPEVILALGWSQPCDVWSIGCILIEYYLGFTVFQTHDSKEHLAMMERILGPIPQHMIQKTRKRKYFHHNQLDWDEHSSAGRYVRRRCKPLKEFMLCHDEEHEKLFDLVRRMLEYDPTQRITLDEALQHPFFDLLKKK
T1 sequence (P49760 whole entry): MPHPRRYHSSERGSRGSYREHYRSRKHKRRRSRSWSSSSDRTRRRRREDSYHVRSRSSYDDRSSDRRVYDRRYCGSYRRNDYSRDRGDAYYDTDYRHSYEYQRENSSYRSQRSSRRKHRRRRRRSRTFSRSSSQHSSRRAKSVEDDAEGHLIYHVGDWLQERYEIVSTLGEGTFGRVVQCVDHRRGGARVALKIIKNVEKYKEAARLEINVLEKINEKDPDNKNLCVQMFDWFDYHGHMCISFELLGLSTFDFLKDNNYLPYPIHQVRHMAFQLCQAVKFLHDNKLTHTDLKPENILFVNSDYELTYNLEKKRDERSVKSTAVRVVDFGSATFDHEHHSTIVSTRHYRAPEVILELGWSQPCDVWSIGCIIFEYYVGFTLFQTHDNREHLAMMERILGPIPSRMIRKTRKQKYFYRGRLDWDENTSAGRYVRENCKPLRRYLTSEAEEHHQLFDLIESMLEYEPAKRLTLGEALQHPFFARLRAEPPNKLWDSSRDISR
T4 sequence (Q9H2X6 whole entry): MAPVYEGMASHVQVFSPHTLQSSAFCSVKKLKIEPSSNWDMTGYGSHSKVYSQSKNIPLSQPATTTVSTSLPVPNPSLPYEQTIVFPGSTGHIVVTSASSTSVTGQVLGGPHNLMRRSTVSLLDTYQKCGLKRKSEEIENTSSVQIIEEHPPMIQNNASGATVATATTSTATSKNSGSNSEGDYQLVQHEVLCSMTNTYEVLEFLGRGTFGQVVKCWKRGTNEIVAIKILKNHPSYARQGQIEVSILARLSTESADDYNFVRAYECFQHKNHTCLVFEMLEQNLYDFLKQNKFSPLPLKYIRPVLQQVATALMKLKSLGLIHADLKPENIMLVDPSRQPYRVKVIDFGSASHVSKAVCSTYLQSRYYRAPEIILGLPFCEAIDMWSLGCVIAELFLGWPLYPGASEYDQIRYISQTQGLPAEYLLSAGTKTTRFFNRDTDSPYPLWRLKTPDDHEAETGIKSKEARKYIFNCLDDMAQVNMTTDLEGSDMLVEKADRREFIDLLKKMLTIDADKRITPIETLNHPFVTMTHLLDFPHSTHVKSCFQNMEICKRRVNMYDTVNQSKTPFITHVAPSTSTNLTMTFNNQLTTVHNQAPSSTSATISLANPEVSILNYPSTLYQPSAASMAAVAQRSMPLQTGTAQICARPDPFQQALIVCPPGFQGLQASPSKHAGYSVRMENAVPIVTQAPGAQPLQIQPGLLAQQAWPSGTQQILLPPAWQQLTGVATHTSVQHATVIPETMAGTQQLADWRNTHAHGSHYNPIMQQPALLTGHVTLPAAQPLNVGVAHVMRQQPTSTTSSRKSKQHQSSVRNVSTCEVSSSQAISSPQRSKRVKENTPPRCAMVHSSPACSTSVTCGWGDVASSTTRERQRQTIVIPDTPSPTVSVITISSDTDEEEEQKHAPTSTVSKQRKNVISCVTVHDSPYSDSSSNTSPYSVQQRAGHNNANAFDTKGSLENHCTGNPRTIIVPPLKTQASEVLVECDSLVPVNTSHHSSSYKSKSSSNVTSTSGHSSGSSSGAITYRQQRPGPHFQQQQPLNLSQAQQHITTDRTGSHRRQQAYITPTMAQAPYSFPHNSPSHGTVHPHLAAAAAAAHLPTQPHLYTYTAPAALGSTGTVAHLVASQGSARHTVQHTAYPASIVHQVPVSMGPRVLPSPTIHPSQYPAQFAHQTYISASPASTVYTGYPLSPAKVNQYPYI
T3 sequence (Q86Z02 whole entry): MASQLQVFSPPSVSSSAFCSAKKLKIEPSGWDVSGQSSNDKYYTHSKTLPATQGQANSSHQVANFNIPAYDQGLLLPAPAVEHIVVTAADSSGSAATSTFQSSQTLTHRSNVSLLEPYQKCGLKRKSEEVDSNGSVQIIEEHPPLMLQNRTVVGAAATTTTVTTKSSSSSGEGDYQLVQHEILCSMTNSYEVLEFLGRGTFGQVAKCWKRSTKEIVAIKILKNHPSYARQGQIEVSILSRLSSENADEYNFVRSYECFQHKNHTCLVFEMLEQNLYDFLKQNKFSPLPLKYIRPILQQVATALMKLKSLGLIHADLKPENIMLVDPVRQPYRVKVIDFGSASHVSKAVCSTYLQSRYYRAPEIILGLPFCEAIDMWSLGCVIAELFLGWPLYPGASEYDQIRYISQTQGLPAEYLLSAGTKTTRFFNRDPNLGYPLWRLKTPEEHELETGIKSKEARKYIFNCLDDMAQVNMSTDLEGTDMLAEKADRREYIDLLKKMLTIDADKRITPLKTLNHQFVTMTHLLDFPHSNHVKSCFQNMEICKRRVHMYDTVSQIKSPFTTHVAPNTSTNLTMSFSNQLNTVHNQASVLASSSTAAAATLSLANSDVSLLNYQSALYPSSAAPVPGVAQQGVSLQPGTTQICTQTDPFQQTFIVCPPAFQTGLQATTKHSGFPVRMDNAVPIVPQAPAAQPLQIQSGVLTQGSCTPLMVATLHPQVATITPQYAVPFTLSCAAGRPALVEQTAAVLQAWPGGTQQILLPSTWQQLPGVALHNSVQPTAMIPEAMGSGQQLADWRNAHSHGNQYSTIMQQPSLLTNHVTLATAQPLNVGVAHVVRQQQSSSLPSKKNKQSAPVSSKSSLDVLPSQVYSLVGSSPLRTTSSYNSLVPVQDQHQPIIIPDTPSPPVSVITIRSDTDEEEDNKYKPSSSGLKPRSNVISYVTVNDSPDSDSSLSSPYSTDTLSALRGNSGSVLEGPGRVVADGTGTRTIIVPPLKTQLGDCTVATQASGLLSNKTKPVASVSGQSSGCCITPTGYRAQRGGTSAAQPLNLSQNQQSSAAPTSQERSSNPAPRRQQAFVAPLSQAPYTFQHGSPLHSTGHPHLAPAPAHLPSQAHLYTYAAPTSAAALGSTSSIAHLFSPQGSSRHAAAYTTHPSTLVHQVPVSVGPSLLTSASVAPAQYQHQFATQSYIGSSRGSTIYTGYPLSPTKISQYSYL

IC50 [1] [µM] | IC50 [2] [µM] | IC50 [3] [µM] | IC50 [4] [µM] | IC50 [5] [µM] | IC50 [6] [µM] | IC50 [7] [µM] | SMILES
< 0.1 | < 0.1 | < 1 | < 1 | < 1 | – | – | Cn1cc(-c2ccc3occ(-c4ccc5ccccc5c4)c3n2)cn1 [Preparative Example 7A]
< 5 | < 5 | < 5 | < 1 | < 5 | – | – | Cc1n[nH]c(C)c1-c1ccc2occ(-c3ccc4ccccc4c3)c2n1 [Preparative Example 7D]
< 1 | – | – | – | – | < 1 | < 5 | c1ccc(-c2coc3ccc(Nc4ccc(N5CCOCC5)cc4)nc23)cc1 [Preparative Example 8B]
– | < 5 | – | – | – | < 5 | < 5 | CN1CCN(c2ccc(Nc3ccc4occ(-c5ccccc5)c4n3)cc2)CC1 [Preparative Example 8C]
– | – | – | – | – | < 5 | – | c1ccc(-c2coc3ccc(Nc4ccncc4)nc23)cc1 [Preparative Example 8D]
– | < 5 | – | – | – | < 5 | < 5 | c1ccc(Nc2ccc3occ(-c4ccccc4)c3n2)cc1 [Preparative Example 8E]
– | – | – | – | – | < 5 | < 5 | Cc1cc(Nc2cc(-c3ccccc3)nc3ccoc23)sn1 [Preparative Example 17E]
